# Measured values: patent US11311524B2, “Pharmaceutical composition used for treatment of HTLV-1-associated myelopathy” (DAIICHI SANKYO COMPANY, LIMITED, priority 2017, dated 2022)
# Like-named read-outs stand apart in the source and are kept apart here.
# How the values were obtained:
# HAM patient-derived PBMC = assay: Autoproliferation (3H-thymidine incorporation) of HAM patient-derived PBMC without stimulation; type: cell-based, human; settings: for GI50: Homo sapiens, 6 days culture, 3H-thymidine; for Suppression of autoproliferation activity of HAM patient-derived PBMC: no stimulation, relative to DMSO group
# Description: PBMC taken from 8 HAM patients were suspended in culture mediums (RPMI1640 culture medium (wako) containing 10% FBS (GIBCO)), seeded in a 96-well round-bottom plate in a ratio of 1×10^5 cells per well (3 wells were used for each concentration), and compound A or compound B was added so as to provide a final concentration of 1, 10, 100 or 1000 nM. Culture was carried out at 37° C. in 5% CO2 conditions for 6 days. The DMSO treatment group and the PSL (1 μg/mL) treatment group were used as controls. Day 6 after initiation of culture, 1 μCi ^3H-thymidine was added to each well and culture was carried out at 37° C., in 5% CO2 conditions for 16 hours. Thereafter, the cultured cells were allowed to adsorb to a glass filter (Printed Filtermat A, PerkinElmer) by a cell harvester (Tomtec MH3, PerkinElmer), dried and impregnated with solid scintillator Meltilex-A (PerkinElmer). The amount of the ^3H-thymidine incorporated in the cells was measured by use of MicroBeta (WALLAC MicroBeta TriLux 1450-021) (Yamano et al., PLoS One. 2009, 4(8): e6517). Based on the average count of ^3H-thymidine in the DMSO treatment group of HAM patients' PBMC as 100%, the relative values of the groups treated with compound A, compound B and PSL (1 μg/mL) were obtained by calculation, and then, an average value of 8 HAM patient cases was obtained. A significance test was carried out in accordance with the Friedman test of GraphPad Prism6 (MDF).
# The number of patients was increased to 16 and the same experiment as above was carried out.
# Effect on HAM patient-derived PBMC was checked in the same manner as in the above Example except that an EZH2 inhibitor was used in place of compounds A and B.
# As the EZH2 inhibitor, GSK126 (CAS No.: 1346574-57-9) and E7438 (CAS No.: 1403254-99-8) were used. The concentration for treatment was 1, 10, 100, 1000 or 10000 nM in terms of final concentration. In the experiment, PBMC samples taken from the 8 persons before the number of cases increased in the above were used.
# EZH2 = EZH2 (Homo sapiens, UniProt Q15910); settings: from WO2015/141616; cited from earlier work
# Sequence of EZH2 (Q15910 whole entry): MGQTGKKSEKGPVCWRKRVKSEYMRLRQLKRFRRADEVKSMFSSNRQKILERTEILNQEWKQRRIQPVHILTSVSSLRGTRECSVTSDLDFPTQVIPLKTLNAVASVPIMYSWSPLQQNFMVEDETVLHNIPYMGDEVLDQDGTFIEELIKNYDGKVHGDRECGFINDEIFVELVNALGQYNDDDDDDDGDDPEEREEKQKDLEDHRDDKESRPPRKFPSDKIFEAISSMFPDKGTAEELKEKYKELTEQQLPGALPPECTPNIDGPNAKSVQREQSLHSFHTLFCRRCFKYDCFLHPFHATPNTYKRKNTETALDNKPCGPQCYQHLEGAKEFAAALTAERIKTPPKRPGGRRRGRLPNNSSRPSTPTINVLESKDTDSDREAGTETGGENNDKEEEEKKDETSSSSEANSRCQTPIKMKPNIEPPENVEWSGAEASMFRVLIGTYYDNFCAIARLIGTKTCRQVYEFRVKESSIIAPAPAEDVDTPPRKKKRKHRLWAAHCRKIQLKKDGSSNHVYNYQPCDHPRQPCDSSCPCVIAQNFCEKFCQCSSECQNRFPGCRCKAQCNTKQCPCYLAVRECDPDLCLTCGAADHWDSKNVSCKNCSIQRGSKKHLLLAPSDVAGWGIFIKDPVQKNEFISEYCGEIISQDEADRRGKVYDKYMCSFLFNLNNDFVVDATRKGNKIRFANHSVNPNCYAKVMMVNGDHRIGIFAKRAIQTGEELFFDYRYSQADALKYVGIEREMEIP
# Sequence of EZH2 (O75530 whole entry partner): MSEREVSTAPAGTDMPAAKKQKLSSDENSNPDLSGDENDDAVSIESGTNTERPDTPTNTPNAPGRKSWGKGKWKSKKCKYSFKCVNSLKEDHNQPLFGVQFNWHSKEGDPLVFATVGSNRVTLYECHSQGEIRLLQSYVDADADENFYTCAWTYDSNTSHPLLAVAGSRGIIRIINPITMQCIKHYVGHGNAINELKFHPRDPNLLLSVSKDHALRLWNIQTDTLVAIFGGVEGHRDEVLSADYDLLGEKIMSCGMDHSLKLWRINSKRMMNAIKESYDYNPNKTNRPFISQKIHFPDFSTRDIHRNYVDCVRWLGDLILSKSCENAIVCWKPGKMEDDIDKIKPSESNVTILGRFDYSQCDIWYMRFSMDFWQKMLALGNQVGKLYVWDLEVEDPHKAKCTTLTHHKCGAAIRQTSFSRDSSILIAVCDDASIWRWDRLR
# Sequence of EZH2 (Q15022 whole entry partner): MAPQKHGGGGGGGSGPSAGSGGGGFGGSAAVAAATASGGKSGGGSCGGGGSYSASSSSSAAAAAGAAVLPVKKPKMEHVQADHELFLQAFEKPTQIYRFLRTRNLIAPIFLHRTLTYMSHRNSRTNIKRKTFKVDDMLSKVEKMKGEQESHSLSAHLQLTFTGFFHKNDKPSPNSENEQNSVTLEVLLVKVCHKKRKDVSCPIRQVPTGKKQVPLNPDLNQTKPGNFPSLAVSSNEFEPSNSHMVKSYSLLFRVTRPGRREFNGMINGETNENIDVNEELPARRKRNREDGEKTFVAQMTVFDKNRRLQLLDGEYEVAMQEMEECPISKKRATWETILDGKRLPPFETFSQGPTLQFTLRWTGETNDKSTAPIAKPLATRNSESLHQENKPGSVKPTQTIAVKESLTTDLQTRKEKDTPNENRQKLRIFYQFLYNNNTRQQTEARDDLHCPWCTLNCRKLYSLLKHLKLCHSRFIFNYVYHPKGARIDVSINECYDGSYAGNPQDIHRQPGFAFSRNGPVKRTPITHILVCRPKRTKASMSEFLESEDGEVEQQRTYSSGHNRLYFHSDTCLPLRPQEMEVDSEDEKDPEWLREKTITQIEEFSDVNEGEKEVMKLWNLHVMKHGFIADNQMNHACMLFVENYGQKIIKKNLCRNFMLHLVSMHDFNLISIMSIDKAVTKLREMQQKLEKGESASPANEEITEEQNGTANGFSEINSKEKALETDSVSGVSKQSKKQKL
# Sequence of EZH2 (Q09028 whole entry partner): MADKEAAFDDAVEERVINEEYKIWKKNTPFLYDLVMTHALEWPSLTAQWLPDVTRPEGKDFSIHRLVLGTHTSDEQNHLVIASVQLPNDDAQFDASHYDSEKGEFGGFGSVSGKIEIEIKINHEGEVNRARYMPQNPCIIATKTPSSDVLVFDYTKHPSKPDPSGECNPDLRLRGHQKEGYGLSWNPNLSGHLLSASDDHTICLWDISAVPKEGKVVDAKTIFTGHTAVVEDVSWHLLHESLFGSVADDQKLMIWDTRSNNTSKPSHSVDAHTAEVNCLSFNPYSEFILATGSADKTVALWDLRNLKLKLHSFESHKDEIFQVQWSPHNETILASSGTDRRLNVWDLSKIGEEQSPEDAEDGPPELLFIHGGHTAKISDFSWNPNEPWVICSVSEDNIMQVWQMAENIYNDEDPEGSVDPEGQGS
# [1] = system: HTLV-1 infected cells in HAM patient's PBMC; assay: HTLV-1 pro-viral load (infected cell rate) in HAM patient-derived PBMC by real time PCR; type: cell-based, human; settings: 12 days culture; for Reduction in HTLV-1 pro-viral load: 1000 nM, average of all HAM patients; for Cases in which HTLV-1 pro-viral load in HAM patient's PBMC decreases: PBMC of 8 HAM patients
# Description: PBMC taken from 8 HAM patients were suspended in a culture medium (RPMI1640 culture medium containing 10% FBS) and seeded in a 48-well plate in a ratio of 5×10^5 cells per well, and compound A or compound B was added so as to provide a final concentration of 1, 10, 100 or 1000 nM. The culture solution of 0.5 mL in total was cultured at 37° C. in 5% CO2 conditions for 12 days. A group treated with DMSO and a group treated with PSL (1 μg/mL) were used as controls. Day 12 after initiation of culture, the culture solution was centrifuged, and thereafter, the cell suspension was recovered from each of the cultures carried out under different conditions and centrifuged. After the supernatant was removed, the cell pellet was subjected to genomic DNA extraction. The genome DNA extracted was subjected to real time PCR to measure HTLV-1 pro-viral load (infected cell rate) (Yamano et al., Blood. 2002, 99 (1): 88-94). Based on the HTLV-1 pro-viral load in cells, which were obtained by adding DMSO to each of the HAM patient's PBMC and culturing the PBMC, as 100%, the relative value of HTLV-1 pro-viral load in a group treated with compound A, compound B or PSL was calculated, and then, an average value of 8 HAM patient cases was obtained. The significance test was carried out by using the Friedman test of GraphPad Prism6 (MDF).
# [2] = PBMC of 8 HAM patients, read-out: GI50, autoproliferation activity of HAM patient-derived PBMC
# [3] = PBMC of 16 HAM patients, read-out: GI50, spontaneous proliferation activity of HAM patient-derived PBMC
SMILES,GI50 (HAM patient-derived PBMC; [2]) [nM],GI50 (HAM patient-derived PBMC; [3]) [nM],Suppression of autoproliferation activity of HAM patient-derived PBMC (HAM patient-derived PBMC),Inhibition of enzyme activity of EZH2 (EZH2),Reduction in HTLV-1 pro-viral load [1],Cases in which HTLV-1 pro-viral load in HAM patient's PBMC decreases [1]
"Cc1cc(C)c(CNC(=O)c2cc(Cl)c3c(c2C)O[C@@](C)([C@H]2CC[C@H](N(C)C)CC2)O3)c(=O)[nH]1 [compound B, (2R)-7-chloro-2-[trans-4-(dimethylamino)cyclohexyl]-N-[(4,6-dimethyl-2-oxo-1,2-dihydropyridin-3-yl)methyl]-2,4-dimethyl-1,3-benzodioxole-5-carboxamide]",33.9,25.9,"suppressed autoproliferation activity of PBMC in all the eight HAM patient cases, in a concentration-dependent manner",inhibit,significant reduction in pro-viral load,5 out of 8
"Cc1cc(C)c(CNC(=O)c2cc(Br)c3c(c2C)O[C@@](C)([C@H]2CC[C@H](N(C)C)CC2)O3)c(=O)[nH]1 [compound A, (2R)-7-bromo-2-[trans-4-(dimethylamino)cyclohexyl]-N-[(4,6-dimethyl-2-oxo-1,2-dihydropyridin-3-yl)methyl]-2,4-dimethyl-1,3-benzodioxole-5-carboxamide]",73,45.6,"suppressed autoproliferation activity of PBMC in all the eight HAM patient cases, in a concentration-dependent manner",inhibit,significant reduction in pro-viral load,5 out of 8
